Assay results published in US20220395553A1, “CXCR4 ANTAGONIST PEPTIDES” (COHBAR, INC., priority 2019, published 2022).
Square brackets hold non-standard residues; d marks the D form. Peptide text beside a SMILES is read from it.

Columns and labels:
[1] = system: Jurkat cells; experiment: CXCL12 mediated cell migration, Jurkat cells; format: cell-based, human; settings: 1.1 μM test article, 100 ng/ml CXCL12, 1 hour
Method: The assay was performed following a protocol similar to that described by Peng, et al., Mol Cancer Ther., 14480-90 (2015), incorporated herein by reference. Peptides were initially prepared as 1 mM stock in H2O and tested at a final concentration of 1.1 μM. […] Jurkat cells were resuspended in serum free media (RPMI+GlutaMax; Gibco/Thermo Fisher Scientific; Gaithersburg, Md.) containing 0.5% bovine serum albumin at density of 5×10^6 cells/ml. […] Cells (250,000 cells in 50 μl) supplemented with the appropriate treatments were seeded on to the upper chamber of a 96-well 5 μm HTS Transwell filter insert (Corning/Costar; Tewksbury, Mass.). […] Filter inserts were immediately placed on top of 96-well receiver trays and placed at 37° C. in a humidified atmosphere of 5% CO2/95% air for 1 hour. Following the 1 hour incubation period the filter inserts were carefully removed and the migration of cells across the filter into the bottom chamber (receiver wells) was determined by measuring ATP levels using Cell TiterGlo 2.0, according to manufacturer's instructions (Promega; Madison, Wis.); luminescence was measured using a Cytation 3 plate reader (BioTek; Winooski, Vt.).

[2] = biological target: T1, human CXCR4 (Homo sapiens, UniProt P61073); experiment: IC50 for CXCR4/CXCL12 ligand binding, HTRF format (Example 24); parameters: host or cells: HEK293 (Tag-lite CXCR4 cells, frozen aliquots, transient expression)
Method: Peptides were initially prepared as 1 mM stock in H2O. […] Following the manufacture's protocol, a frozen aliquot of Tag-lite CXCR4 cells was thawed and immediately seeded onto 384-well plates in TLB. […] The plates were covered in aluminum foil and left at room temperature for 3 hours. Following the 3 hour incubation period, the plates were removed from the incubator and fluorescence measured using a Cytation 1 plate reader using a HTRF filter cube ([…]; BioTek; Winooski, Vt.).

[3] = biological target: T1, human CXCR4; experiment: CXCR4/CXCL12 binding, HTRF format, single concentration (Example 23); parameters: host or cells: HEK293 (Tag-lite CXCR4 cells, frozen aliquots, transient expression); settings: 15 nM CXCR4R fluorescent probe, 3 hours, HEK293 Tag-lite CXCR4 cells
Method in brief: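 Tag-lite CXCR4 cells were exposed to peptide at 400 nM final with 15 nM (EC80) fluorescent CXCR4 probe for 3 h at room temperature. HTRF was read, and the 665/620 nm ratio ×10,000 measured probe bound to terbium-labelled receptor.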

[4] = system: CXCR4/CXCL12 induced p-MEK; experiment: CXCR4/CXCL12 induced p-MEK in Jurkat cells (ELISA); format: cell-based, human; settings: 5 nM CXCL12, 5 min
Method in brief: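 Jurkat cells in RPMI+GlutaMax containing 10% FBS and 1% penicillin/streptomycin, fresh or conditioned, were resuspended at 2×10^6 cells/ml and […] aliquots placed in tubes. After a 5 min stimulation they were pelleted, rinsed with HBSS and lysed with PMSF and protease/phosphatase inhibitors. Phospho-MEK1 (Ser217/221) was quantified by sandwich ELISA with absorbance read at 450 nm.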

[5] = biological target: T1, human CXCR4; experiment: IC50 for inhibition of CXCR4 activation, β-Arrestin recruitment (Example 22); format: cell-based; parameters: host or cells: C2C12 (mouse myoblast) CXCR4 β-Arrestin PathHunter cell line
Method in brief: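 C2C12 cells co-expressing ProLink-tagged human CXCR4 and Enzyme Acceptor-tagged β-arrestin (PathHunter). Peptides tested in 10-point, 3-fold dilutions from 1 μM (1 μM–0.05 nM). Recruitment read by chemiluminescent enzyme-fragment complementation after 90 min incubation.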

T1 sequence (P61073 whole entry): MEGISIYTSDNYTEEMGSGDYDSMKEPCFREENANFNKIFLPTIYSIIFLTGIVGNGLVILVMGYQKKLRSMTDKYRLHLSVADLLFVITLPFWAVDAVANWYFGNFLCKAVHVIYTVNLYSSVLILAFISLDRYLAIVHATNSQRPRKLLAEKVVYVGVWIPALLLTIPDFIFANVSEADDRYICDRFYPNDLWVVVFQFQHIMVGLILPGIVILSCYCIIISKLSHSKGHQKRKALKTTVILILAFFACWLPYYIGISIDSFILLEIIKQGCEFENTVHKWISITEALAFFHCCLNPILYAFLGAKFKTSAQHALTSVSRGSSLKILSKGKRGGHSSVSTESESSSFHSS

CC(C)C[C@H](NC(=O)[C@H](CO)NC(=O)[C@H](CO)NC(=O)[C@H](CCCNC(=N)N)NC(=O)[C@@H](NC(=O)[C@H](CO)NC(=O)[C@H](Cc1c[nH]cn1)NC(=O)[C@H](Cc1c[nH]cn1)NC(=O)[C@H](Cc1ccc(O)cc1)NC(=O)[C@H](CCCNC(=N)N)NC(=O)[C@H](CC(=O)O)NC(=O)[C@@H](N)CC(C)C)C(C)C)C(=O)N[C@@H](CCCNC(=N)N)C(=O)N1CCC[C@H]1C(=O)N[C@@H](Cc1ccc(O)cc1)C(=O)N[C@H](C(=O)N[C@@H](CCCCN)C(=O)O)[C@@H](C)O [compound 7] (H-LDRYHHSVRSSLRPYTK-OH; N-terminus and C-terminus assumed)
Percent Inhibition of CXCL12 Mediated Migration (1.1 μM Test Article) [1]: 52%
IC50 [2]: 5 nM
Percent Inhibition of CXCR4/CXCL12 Binding (400 nM peptide) [3]: 89%
Percent Inhibition of CXCR4/CXCL12 Induced p-MEK (100 nM Test Article) [4]: 60%
Percent Inhibition of CXCR4/CXCL12 Induced p-MEK (1 μM Test Article) [4]: 96%

CC(C)C[C@H](NC(=O)[C@H](CO)NC(=O)[C@H](CO)NC(=O)[C@H](CCCNC(=N)N)NC(=O)[C@@H](NC(=O)[C@H](CO)NC(=O)[C@H](Cc1c[nH]cn1)NC(=O)[C@H](Cc1c[nH]cn1)NC(=O)[C@H](Cc1ccc(O)cc1)NC(=O)[C@H](CCCNC(=N)N)NC(=O)[C@H](CCCNC(=N)N)NC(=O)[C@@H](N)CC(C)C)C(C)C)C(=O)N[C@@H](CCCNC(=N)N)C(=O)N1CCC[C@H]1C(=O)N[C@@H](Cc1ccc(O)cc1)C(=O)N[C@H](C(=O)N[C@@H](CCCCN)C(N)=O)[C@@H](C)O [compound 16] (H-LRRYHHSVRSSLRPYTK-NH2; N-terminus assumed)
Percent Inhibition of CXCL12 Mediated Migration (1.1 μM Test Article) [1]: 21%
IC50 [2]: 573 nM
Percent Inhibition of CXCR4/CXCL12 Binding (400 nM peptide) [3]: −2%
IC50 [5]: 8 nM
Percent Inhibition of CXCR4/CXCL12 Induced p-MEK (100 nM Test Article) [4]: 74%
Percent Inhibition of CXCR4/CXCL12 Induced p-MEK (1 μM Test Article) [4]: 100%

CC(C)C[C@H](NC(=O)[C@H](CO)NC(=O)[C@H](CO)NC(=O)[C@H](CCCNC(=N)N)NC(=O)[C@@H](NC(=O)[C@@H](NC(=O)[C@H](Cc1c[nH]cn1)NC(=O)[C@H](Cc1c[nH]cn1)NC(=O)[C@H](Cc1ccc(O)cc1)NC(=O)[C@H](CCCNC(=N)N)NC(=O)[C@H](CCCNC(=N)N)NC(=O)[C@@H](N)CC(C)C)[C@@H](C)O)C(C)C)C(=O)N[C@@H](CCCNC(=N)N)C(=O)N1CCC[C@H]1C(=O)N[C@@H](Cc1ccc(O)cc1)C(=O)N[C@H](C(=O)N[C@@H](CCCCN)C(=O)O)[C@@H](C)O [compound 38] (H-LRRYHHTVRSSLRPYTK-OH; N-terminus and C-terminus assumed)
IC50 [2]: 175 nM
Percent Inhibition of CXCR4/CXCL12 Binding (400 nM peptide) [3]: 12%
IC50 [5]: 3 nM
Percent Inhibition of CXCR4/CXCL12 Induced p-MEK (100 nM Test Article) [4]: 51%
Percent Inhibition of CXCR4/CXCL12 Induced p-MEK (1 μM Test Article) [4]: 96%

CC(C)C[C@H](NC(=O)[C@H](CO)NC(=O)[C@H](CO)NC(=O)[C@H](CCCNC(=N)N)NC(=O)[C@@H](NC(=O)[C@@H](NC(=O)[C@H](Cc1c[nH]cn1)NC(=O)[C@H](Cc1c[nH]cn1)NC(=O)[C@H](Cc1ccc(O)cc1)NC(=O)[C@H](CCCNC(=N)N)NC(=O)[C@H](CCC(=O)O)NC(=O)[C@@H](N)CC(C)C)[C@@H](C)O)C(C)C)C(=O)N[C@@H](CCCNC(=N)N)C(=O)N1CCC[C@H]1C(=O)N[C@@H](Cc1ccc(O)cc1)C(=O)N[C@H](C(=O)N[C@@H](CCCCN)C(=O)O)[C@@H](C)O [compound 39] (H-LERYHHTVRSSLRPYTK-OH; N-terminus and C-terminus assumed)
Percent Inhibition of CXCL12 Mediated Migration (1.1 μM Test Article) [1]: 77%
IC50 [2]: 8 nM
Percent Inhibition of CXCR4/CXCL12 Binding (400 nM peptide) [3]: 87%
IC50 [5]: 3 nM
Percent Inhibition of CXCR4/CXCL12 Induced p-MEK (100 nM Test Article) [4]: 38%
Percent Inhibition of CXCR4/CXCL12 Induced p-MEK (1 μM Test Article) [4]: 95%

CC(C)C[C@H](NC(=O)[C@H](CO)NC(=O)[C@H](CO)NC(=O)[C@H](CCCNC(=N)N)NC(=O)[C@@H](NC(=O)[C@H](CO)NC(=O)[C@H](Cc1c[nH]cn1)NC(=O)[C@H](Cc1c[nH]cn1)NC(=O)[C@H](Cc1ccccc1)NC(=O)[C@H](CCCNC(=N)N)NC(=O)[C@H](CCC(=O)O)NC(=O)[C@@H](N)CC(C)C)C(C)C)C(=O)N[C@@H](CCCNC(=N)N)C(=O)N1CCC[C@H]1C(=O)N[C@@H](Cc1ccc(O)cc1)C(=O)N[C@H](C(=O)N[C@@H](CCCCN)C(=O)O)[C@@H](C)O [compound 54] (H-LERFHHSVRSSLRPYTK-OH; N-terminus and C-terminus assumed)
Percent Inhibition of CXCL12 Mediated Migration (1.1 μM Test Article) [1]: 54%
IC50 [2]: 8 nM
Percent Inhibition of CXCR4/CXCL12 Binding (400 nM peptide) [3]: 79%
IC50 [5]: 3 nM
Percent Inhibition of CXCR4/CXCL12 Induced p-MEK (100 nM Test Article) [4]: 46%
Percent Inhibition of CXCR4/CXCL12 Induced p-MEK (1 μM Test Article) [4]: 92%

CC(C)C[C@H](NC(=O)[C@H](CO)NC(=O)[C@H](CO)NC(=O)[C@H](CCCNC(=N)N)NC(=O)[C@@H](NC(=O)[C@H](CO)NC(=O)[C@H](Cc1c[nH]cn1)NC(=O)[C@H](Cc1c[nH]cn1)NC(=O)[C@H](Cc1ccc(O)cc1)NC(=O)[C@H](CCCNC(=N)N)NC(=O)[C@H](CCC(=O)O)NC(=O)[C@@H](N)CC(C)C)C(C)C)C(=O)N[C@@H](CCCNC(=N)N)C(=O)N1CCC[C@H]1C(=O)N[C@@H](Cc1ccc(O)cc1)C(=O)N[C@H](C(=O)N[C@@H](CCCCN)C(N)=O)[C@@H](C)O [compound 56] (H-LERYHHSVRSSLRPYTK-NH2; N-terminus assumed)
Percent Inhibition of CXCL12 Mediated Migration (1.1 μM Test Article) [1]: 83%
IC50 [2]: 5 nM
Percent Inhibition of CXCR4/CXCL12 Binding (400 nM peptide) [3]: 79%
IC50 [5]: 11 nM
Percent Inhibition of CXCR4/CXCL12 Induced p-MEK (100 nM Test Article) [4]: 69%
Percent Inhibition of CXCR4/CXCL12 Induced p-MEK (1 μM Test Article) [4]: 98%

CC(C)C[C@H](NC(=O)[C@H](CO)NC(=O)[C@H](CO)NC(=O)[C@H](CCCNC(=N)N)NC(=O)[C@@H](C)NC(=O)[C@H](CO)NC(=O)[C@H](Cc1c[nH]cn1)NC(=O)[C@H](Cc1c[nH]cn1)NC(=O)[C@H](Cc1ccc(O)cc1)NC(=O)[C@H](CCCNC(=N)N)NC(=O)[C@H](CCC(=O)O)NC(=O)[C@@H](N)CC(C)C)C(=O)N[C@@H](CCCNC(=N)N)C(=O)N1CCC[C@H]1C(=O)N[C@@H](Cc1ccc(O)cc1)C(=O)N[C@H](C(=O)N[C@@H](CCCCN)C(N)=O)[C@@H](C)O [compound 57] (H-LERYHHS[dA]RSSLRPYTK-NH2; N-terminus assumed)
Percent Inhibition of CXCL12 Mediated Migration (1.1 μM Test Article) [1]: 30%
IC50 [2]: 7 nM
Percent Inhibition of CXCR4/CXCL12 Binding (400 nM peptide) [3]: 77%
IC50 [5]: 33 nM
Percent Inhibition of CXCR4/CXCL12 Induced p-MEK (100 nM Test Article) [4]: 10%
Percent Inhibition of CXCR4/CXCL12 Induced p-MEK (1 μM Test Article) [4]: 72%

CC(C)C[C@H](NC(=O)[C@H](CO)NC(=O)[C@H](CO)NC(=O)[C@H](CCCNC(=N)N)NC(=O)[C@@H](NC(=O)[C@H](CO)NC(=O)[C@H](Cc1c[nH]cn1)NC(=O)[C@H](Cc1c[nH]cn1)NC(=O)[C@H](Cc1ccc(O)cc1)NC(=O)[C@H](CCCNC(=N)N)NC(=O)[C@H](CCCNC(=N)N)NC(=O)[C@@H](N)CC(C)C)C(C)C)C(=O)N[C@@H](CCCNC(=N)N)C(=O)NCC(=O)N[C@@H](Cc1ccc(O)cc1)C(=O)N[C@H](C(=O)N[C@@H](CCCCN)C(=O)O)[C@@H](C)O [compound 79] (H-LRRYHHSVRSSLRGYTK-OH; N-terminus and C-terminus assumed)
Percent Inhibition of CXCL12 Mediated Migration (1.1 μM Test Article) [1]: 36%
Percent Inhibition of CXCR4/CXCL12 Binding (400 nM peptide) [3]: 12%
IC50 [5]: 3 nM
Percent Inhibition of CXCR4/CXCL12 Induced p-MEK (100 nM Test Article) [4]: 46%
Percent Inhibition of CXCR4/CXCL12 Induced p-MEK (1 μM Test Article) [4]: 100%
